Assay results from ChEMBL document CHEMBL4229526, “Quinoxaline derivatives as potential antitrypanosomal and antileishmanial agents” (Bioorg Med Chem, 2018).

Tests used:
THP-1 = assay: Cytotoxicity against human THP1 cells infected with Leishmania donovani MHOM/SD/62/1S-CL2D LdBOB amastigotes harboring eGFP assessed as reduction in cell number after 96 hrs by DAPI staining based microscopic analysis; conditions: THP-1, 96 h
H9c2 = assay: Cytotoxicity against rat H9c2 cells infected with Trypanosoma cruzi Tulahuen amastigote forms assessed as reduction in cell number after 72 hrs by DRAQ5 DNA dye based confocal microscopic analysis; conditions: H9c2, 72 h
Trypanosoma cruzi [1] = assay: Antitrypanosomal activity against Trypanosoma cruzi Tulahuen trypomastigote forms infected in monkey LLC-MK2 cells after 24 hrs by CellTiter-Glo luminescent cell viability assay; assay type: functional, organism-based; conditions: LLC-MK2, 24 h
Trypanosoma brucei = assay: Antitrypanosomal activity against Trypanosoma brucei Lister 427 bloodstream forms after 48 hrs by resazurin dye based fluorescence assay; assay type: functional, organism-based; conditions: Lister 427, 48 h
[2] = Cytotoxicity against human HepG2 cells after 48 hrs by CellTiter-Glo cell viability assay; assay type: cell-based
Leishmania donovani [3] = assay: Antileishmanial activity against Leishmania donovani MHOM/SD/62/1S-CL2D LdBOB amastigotes harboring eGFP infected in human THP1 cells assessed as reduction in number of amastigotes per cell after 96 hrs by DAPI staining based microscopic analysis; assay type: functional, organism-based; conditions: THP-1, 96 h
Leishmania donovani [4] = assay: Antileishmanial activity against Leishmania donovani MHOM/SD/62/1S-CL2D LdBOB amastigotes harboring eGFP infected in human THP1 cells assessed as reduction in infected cells after 96 hrs by DAPI staining based microscopic analysis; assay type: functional, organism-based; conditions: THP-1, 96 h
Trypanosoma cruzi [5] = assay: Antitrypanosomal activity against Trypanosoma cruzi Tulahuen amastigote forms infected in rat H9c2 cells assessed as reduction in amastigote number per cell after 72 hrs by DRAQ5 DNA dye based confocal microscopic analysis; assay type: functional, organism-based; conditions: H9c2, 72 h
Trypanosoma cruzi [6] = assay: Antitrypanosomal activity against Trypanosoma cruzi Tulahuen amastigote forms infected in rat H9c2 cells assessed as reduction in infected cells after 72 hrs by DRAQ5 DNA dye based confocal microscopic analysis; assay type: functional, organism-based; conditions: H9c2, 72 h
Leishmania donovani [7] = assay: Antileishmanial activity against Leishmania donovani MHOM/SD/62/1S-CL2D LdBOB axenic amastigotes harboring eGFP after 72 hrs by resazurin dye based fluorescence assay; assay type: functional, organism-based

| Structure (SMILES) | IC50 (THP-1) [µM] | IC50 (H9c2) [µM] | IC50 (Trypanosoma cruzi [1]) [µM] | IC50 (Trypanosoma brucei) [µM] | CC50 at 48 h [2] [µM] | IC50 (Leishmania donovani [3]) [µM] | IC50 (Leishmania donovani [4]) [µM] | IC50 (Trypanosoma cruzi [5]) [µM] | IC50 (Trypanosoma cruzi [6]) [µM] | IC50 (Leishmania donovani [7]) [µM] |
| --- | --- | --- | --- | --- | --- | --- | --- | --- | --- | --- |
| CCCCNc1nc2ccc(OC)cc2nc1S(C)(=O)=O | 12.6 | 15.8 | 8.86 | 25.1 | 19.9 | 25.1 | 31.6 | 19.9 | 19.9 | 12.6 |
| COc1ccc2nc(NCCO)c(S(C)(=O)=O)nc2c1 | 31.6 | 31.6 | 23.5 | 39.8 | 39.8 | 25.1 | > 50 | 31.6 | 39.8 | 25.1 |
| CCCCNc1nc2ccccc2nc1S(C)(=O)=O | 12.6 | 10 | 8.67 | 25.1 | 12.6 | 19.9 | 25.1 | 15.8 | 15.8 | 10 |
| COc1ccc2nc(NC3CCCCC3)c(S(C)(=O)=O)nc2c1 | 10 | 6.31 | 3.64 | 15.8 | 12.6 | 6.31 | 7.94 | 12.6 | 15.8 | 10 |
| CCCCNc1nc2cc(OC)ccc2nc1S(C)(=O)=O | > 50 | 31.6 | 41.8 | 25.1 | > 100 | > 50 | > 50 | 25.1 | 39.8 | > 50 |
| COc1ccc2nc(S(C)(=O)=O)c(NCCO)nc2c1 | > 50 | > 50 | 0.77 | 39.8 | > 100 | > 50 | > 50 | > 50 | > 50 | > 50 |
| COc1ccc2nc(S(C)(=O)=O)c(NC3CCCCC3)nc2c1 | 31.6 | 19.9 | 42.5 | 25.1 | 79.4 | > 50 | > 50 | 15.8 | 19.9 | > 50 |
| COc1ccc2nc(S(C)(=O)=O)c(NCC(C)C)nc2c1 | > 50 | 31.6 | 44 | 31.6 | 79.4 | > 50 | > 50 | 31.6 | 31.6 | > 50 |
| COc1ccc2nc(S(C)(=O)=O)c(NCCC(C)C)nc2c1 | 39.8 | 31.6 | > 50 | 25.1 | 50.1 | > 50 | > 50 | 15.8 | 19.9 | > 50 |
| CCCCNc1nc2cc(Br)ccc2nc1S(C)(=O)=O | 7.94 | 5.01 | 0.98 | 6.31 | 7.94 | 6.31 | 10 | 5.01 | 7.94 | 5.01 |
| COc1ccc2nc(NCC(C)C)c(S(C)(=O)=O)nc2c1 | 7.94 | 10 | 5.44 | 25.1 | 12.6 | 12.6 | 19.9 | 15.8 | 19.9 | 12.6 |
| CCCCNc1nc2cc(Cl)ccc2nc1S(C)(=O)=O | 5.01 | 5.01 | 0.96 | 6.31 | 6.31 | 7.94 | 7.94 | 7.94 | 10 | 3.16 |
| CS(=O)(=O)c1nc2ccc(Cl)cc2nc1NC1CCCCC1 | 6.31 | 3.98 | 0.4 | 2.51 | 5.01 | 12.6 | 10 | 5.01 | 7.94 | 3.98 |
| COc1ccc2nc(NC3CCCCC3)c([S+](C)[O-])nc2c1 (stereo unspecified) | 10 | 5.01 | 7.74 | 19.9 | 12.6 | 6.31 | 7.94 | 10 | 12.6 | 7.94 |
| C[S+]([O-])c1nc2ccc(Cl)cc2nc1NC1CCCCC1 (stereo unspecified) | 31.6 | 3.16 | 0.74 | 6.31 | 15.8 | 31.6 | 31.6 | 3.98 | 5.01 | 10 |
| COc1ccc2nc(-c3ccc(Cl)cc3)c(-c3ccc(S(C)(=O)=O)cc3)nc2c1 | 7.94 | 5.01 | 1.14 | 19.9 | 5.01 | 12.6 | 10 | 7.94 | 10 | 2.51 |
| COc1ccc2nc(-c3ccc(-c4ccccc4)cc3)c(-c3ccc(S(C)(=O)=O)cc3)nc2c1 | 39.8 | 25.1 | 42.4 | 31.6 | > 100 | > 50 | > 50 | 31.6 | 19.9 | > 50 |
| COc1ccc2nc(-c3ccc(S(C)(=O)=O)cc3)c(-c3ccc(Cl)cc3)nc2c1 | 12.6 | 10 | 4.21 | 10 | 25.1 | 19.9 | 19.9 | 19.9 | 25.1 | 7.94 |
| CS(=O)(=O)c1ccc(-c2nc3ccccc3nc2-c2ccc(Cl)cc2)cc1 | 10 | 5.01 | 0.7 | 10 | 10 | 10 | 10 | 10 | 12.6 | 3.16 |
| C[C@@H]1[C@H](O)[C@@H](C)/C=C/C=C/C=C/C=C/C=C/C=C/C=C/[C@H](O[C@@H]2O[C@H](C)[C@@H](O)[C@H](N)[C@@H]2O)C[C@@H]2O[C@](O)(C[C@@H](O)C[C@@H](O)[C@H](O)CC[C@@H](O)C[C@@H](O)CC(=O)O[C@H]1C)C[C@H](O)[C@H]2C(=O)O [AMPHOTERICIN B] | 10 | – | – | – | – | 0.63 | 0.63 | – | – | 1.58 |
| O=C(Cn1ccnc1[N+](=O)[O-])NCc1ccccc1 [BENZNIDAZOLE] | – | > 50 | 23 | 3.24 | – | – | – | 1.26 | 5.3 | – |
| NCCC[C@](N)(C(=O)O)C(F)F [EFLORNITHINE, (S)-] | – | – | – | 32.4 | – | – | – | – | – | – |
| CCCCCCCCCCCCCCCCOP(=O)([O-])OCC[N+](C)(C)C [MILTEFOSINE] | 15.8 | – | – | – | – | 3.98 | 5.01 | – | – | 7.94 |
| CC1CS(=O)(=O)CCN1/N=C/c1ccc([N+](=O)[O-])o1 (stereo unspecified) [NIFURTIMOX] | – | > 50 | 2.97 | 7.58 | – | – | – | 0.4 | 5.9 | – |
| N=C(N)c1ccc(OCCCCCOc2ccc(C(=N)N)cc2)cc1 [PENTAMIDINE] | – | – | – | 0.01 | – | – | – | – | – | – |
| Cc1ccc(C(=O)Nc2ccc(S(=O)(=O)O)c3cc(S(=O)(=O)O)cc(S(=O)(=O)O)c23)cc1NC(=O)c1cccc(NC(=O)Nc2cccc(C(=O)Nc3cc(C(=O)Nc4ccc(S(=O)(=O)O)c5cc(S(=O)(=O)O)cc(S(=O)(=O)O)c45)ccc3C)c2)c1 [SURAMIN] | – | – | – | 0.18 | – | – | – | – | – | – |
